{"source": "patent US8207403B2", "about": "“EPSP synthase with high glyphosate resistance and its encoded sequence” (Biotechnology Research Institute The Chinese Academy of …, priority 2007, dated 2012)", "molecules": {"B1": {"name": "GR-79 EPSP: new type I EPSP synthase with high glyphosate resistance, 445 amino acids, SEQ ID NO:1 (protein)", "chain": "MSHSTSRSPWSKATEYHEALVTPTSNKINGEIFVPGSKSYTNRALIIAALAEGTSTLKGILKSDDSYWCIDALRRLGIKIEVAEETVTIHGCGGKWPVQSAELFIGAAGTIARFLPGALAVAQQGEWIVDGVPQLRERPLKPLVDALTQLGGRIEYLTEHPGLPLRVKGAGLSGQHVRVPGNVSSQFLSGLLIASPYASEAVSIEVINGLVQPSYIAITIQLMREFGAKVEHNEDYSLFKVYPTGYQGRDTILEADASTACYFLSLAALTGGTIQVKNVGYHSYQPDARFIDVLEQMGCEVIKNESFLEVTGPTRLKGGFEVDMKPMSDQALTIGALAPFADAPIRVTNVAHIRAHESDRIAVICSSLQQMGVQVEEREDGFTIYPGQPVGTTLNPHDDHRNAMVFGLLGVKVPHIRIVDPGCVSKTCPAYFEELQKFGIHVEYN", "modifications": "From a mixture of organisms"}}, "key": {"[1]": {"tested_on": "GR-79 EPSP synthase (5-enolpyruvylshikinate-3-phosphate synthase), SEQ ID NO:1", "test": "EPSP synthase enzyme activity and kinetic parameters (inorganic phosphorus release, PEP + S3P)", "type": "biochemical", "procedure": "(§1) Standard curve of inorganic phosphorus: 10 mM inorganic phosphorus was diluted at 1:10, and 0, 1, 2, 3 . . . 20 μl was taken into 1.5 ml Eppendorf tube and milli-Q purified water was added up to 100 μl with mixing, 0.8 ml MAT solution was added with mixing, and then 100 μl 34% SC solution was quickly added with mixing after 3 min, kept at room temperature for 20 min and then the OD660 value was determined. Repeat the operations three times as above. The standard curve of inorganic phosphorus was achieved using the concentration of inorganic phosphorus as abscissa and the OD660 value as ordinate.\n(§2) 1) Enzyme activity test: The crude protein extracted with enzyme was quantified using Coomassie Blue G-250 method (Bradford, 1976). The follow solutions were added into 1.5 ml Eppendorf tube on the ice: 2 μl of 10 mM PEP solution, 2 μl of 10 mM S3P solution, 2 μl of 0.5M HEPES solution, 2 μl of 1 mM (NH4)6MO7O24.4H2O solution and 12 μl of milli-Q purified water with mixing, bathed at 28° C. for 5 min and 1 μl crude enzyme solution was added into each, tube at intervals and timing, 200 μl MAT solution was added after 2 min at 2s intervals again, color development was performed for 3 min, and then 20 μl of 34% SC solution was added at 2s intervals and quickly mixed well, the color was developed for 20 min at room temperature and finally the OD660 value was determined. […]"}, "[2]": {"tested_on": "transgenic tobacco with GR-79 EPSP synthase gene", "test": "Glyphosate resistance gradient assay of transgenic tobacco", "type": "in vivo", "details": "greenhouse", "from_the_text": "The plant expression vector of EPSP synthase gene with high glyphosate resistance was constructed and transgenic tobaccos were constructed by transformation using leaf disc cocultivation.\n(8) The plants were removed when the root systems were large, the solid medium attached was washed off with sterile water, and the plants were transferred into the soil, covered with a glass cover for several days at the beginning days, and the cover was removed after the plants were robust, and then the plants were transferred to the solid medium with 10 mM glyphosate to screen the plant strains with glyphosate resistance;"}, "[3]": {"tested_on": "E. coli ER2799 (EPSP synthase defective) with EPSP synthase gene from Agrobacterium sp. cp4 (CP4-ER)", "test": "Glyphosate tolerance test, positive control strain CP4-ER", "type": "cell-based", "details": "M9 liquid medium, 37° C., 36 h, OD600", "procedure": "CP4-ER strain was a strain with glyphosate resistance obtained by ligating the EPSP synthase gene from Agrobacterium sp. cp4 to the vector pACYC 184 and introducing into EPSP synthase defective E. coli ER2799 strain (NEB Company). It was used as a positive control in the figure.\n(§3) The three strains were respectively inoculated into the limited medium M9 with the glyphosate concentration of 0, 20, 50, 80, 100, 120, 150, 200, 250, 300 mM, shaking cultured at 37° C. for 36 h, the absorbance values were determined at OD600 and the figure was plotted with the values.\n(§4) E. coli ER2799 (containing new cloned pACYCGR-79 plasmid) was inoculated into M9 liquid medium (Cm^r) with 0-200 mm glyphosate, shaking cultured at 37° C. for 36 h, and the OD600 value of culture was determined. E. coli ER2799 with plasmid without insert was used as negative control."}, "[4]": {"tested_on": "E. coli ER2799 (EPSP synthase defective) carrying pACYCGR-79 (GR-79-ER)", "test": "Glyphosate tolerance test, strain GR-79-ER", "type": "cell-based", "details": "M9 liquid medium, 37° C., 36 h, OD600", "procedure": "FIG. 1 is a graph of analysis of glyphosate resistance of clone GR-79, wherein: GR-79-ER strain was a strain with glyphosate resistance obtained by cutting the total DNA of soil with enzyme partly, ligating the vector pACYC 184 and introducing into EPSP synthase defective E. coli ER2799 strain (NEB Company).\nas §3, §4"}, "GR-79 EPSP": {"target": "GR-79 EPSP (uncultured soil bacterium (soil metagenome), UniProt A5Y5A5)", "sequence (A5Y5A5 entry or part of it)": "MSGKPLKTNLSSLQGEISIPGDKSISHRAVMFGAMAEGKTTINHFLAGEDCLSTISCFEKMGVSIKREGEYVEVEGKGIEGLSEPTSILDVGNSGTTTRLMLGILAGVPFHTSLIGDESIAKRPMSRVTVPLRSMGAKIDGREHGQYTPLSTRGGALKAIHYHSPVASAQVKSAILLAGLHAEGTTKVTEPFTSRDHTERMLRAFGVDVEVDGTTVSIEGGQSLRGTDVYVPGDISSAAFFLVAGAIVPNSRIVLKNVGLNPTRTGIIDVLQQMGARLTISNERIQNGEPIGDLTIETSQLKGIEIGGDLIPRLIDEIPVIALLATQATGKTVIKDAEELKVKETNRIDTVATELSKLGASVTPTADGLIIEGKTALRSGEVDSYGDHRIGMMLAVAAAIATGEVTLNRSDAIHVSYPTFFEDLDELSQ", "test": "Enzyme activity test of EPSP synthase (inorganic phosphorus release)", "type": "biochemical", "details": "crude enzyme, PEP and S3P substrates, 28° C., OD660", "procedure": "as §1, §2"}}}
{"molecule": "C=C(OP(=O)(O)O)C(=O)O", "note": "[PEP]", "values": [{"measurement": "Km", "setting": "[1]; S3P maintained at 1 mM, PEP 0.05-1.0 mM, Eadie-Hofstee", "result": "79.2 ± 32", "unit": "µM"}]}
{"molecule": "O=C(O)CNCP(=O)(O)O", "note": "[glyphosate]", "values": [{"measurement": "Ki/Km", "setting": "[1]; Ki (glyphosate) / Km (PEP)", "result": 2.16}, {"measurement": "growth of transgenic plants in medium with 20 mM glyphosate", "setting": "[2]", "result": "could grow well"}, {"measurement": "glyphosate resistance (highest glyphosate concentration allowing growth)", "setting": "[3]", "result": 200, "unit": "mM"}, {"measurement": "glyphosate resistance (highest glyphosate concentration allowing growth)", "setting": "[4]", "result": 250, "unit": "mM"}]}
{"molecule": "B1", "values": [{"measurement": "enzyme activity", "setting": "GR-79 EPSP", "result": 10.477, "unit": "U/mg"}]}
